Assay results published in patent publication US20130072427A1, “GPR 119 MODULATORS” (Pfizer Inc., priority 2009, published 2013).
Several values for one entry are separate records, joined by “and”; a condition that tells them apart may be missing. Identical values can stand only once.

Legend:
human GPR119 [1] = target: T1, human GPR119 (Homo sapiens, UniProt Q8TDV5); assay: cAMP functional assay (HTRF, hGPR119 HEK-CRE beta-lactamase cells); type: cell-based
T1 construct: host or cells: HEK293-CRE beta-lactamase cells
T1 sequence (Q8TDV5 1-335): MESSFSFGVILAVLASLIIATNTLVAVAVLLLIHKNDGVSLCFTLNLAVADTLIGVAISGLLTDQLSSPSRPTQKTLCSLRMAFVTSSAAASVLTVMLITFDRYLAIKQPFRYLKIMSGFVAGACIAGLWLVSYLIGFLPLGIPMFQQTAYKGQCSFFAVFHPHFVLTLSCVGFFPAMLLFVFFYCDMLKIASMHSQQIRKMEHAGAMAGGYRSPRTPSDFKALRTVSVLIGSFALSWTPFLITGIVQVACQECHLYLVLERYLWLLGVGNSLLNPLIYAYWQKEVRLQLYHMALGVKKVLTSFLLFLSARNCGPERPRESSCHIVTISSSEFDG
Description: GPR119 agonist activity was also determined with a cell-based assay utilizing an HTRF (Homogeneous Time-Resolved Fluorescence) cAMP detection kit (cAMP dynamic 2 Assay Kit; Cis Bio cat #62AM4PEC) that measures cAMP levels in the cell. The method is a competitive immunoassay between native cAMP produced by the cells and the cAMP labeled with the dye d2. The tracer binding is visualized by a Mab anti-cAMP labeled with Cryptate. The specific signal (i.e. energy transfer) is inversely proportional to the concentration of cAMP in either standard or sample.
Specifically, hGPR119HEK-CRE beta-lactamase cells (Invitrogen 2.5×10^7/ml; the same cell line used in the beta-lactamase assay described above) are removed from cryopreservation and diluted in growth medium (Dulbecco's modified Eagle medium high glucose (DMEM; Gibco Cat #11995-065), 1% charcoal dextran treated fetal bovine serum (CD serum; HyClone Cat #SH30068.03), 1×MEM Nonessential amino acids (Gibco Cat #15630-080) and 25 mM HEPES pH 7.0 (Gibco Cat #15630-080)). The cell concentration was adjusted to 1.5×10^5 cells/ml and 30 mls of this suspension was added to a T-175 flask and incubated at 37 degrees Celsius in a humidified environment in 5% carbon dioxide. After 16 hours (overnight), the cells were removed from the T-175 flask (by rapping the side of the flask), centrifuged at 800×g and then re-suspended in assay medium (1×HBSS+CaCl2+MgCl2 (Gibco Cat #14025-092) and 25 mM HEPES pH 7.0 (Gibco Cat #15630-080)). The cell concentration was adjusted to 6.25×10^5 cells/ml with assay medium and 8 μl of this cell suspension (5000 cells) was added to each well of a white Greiner 384-well, low-volume assay plate (VWR cat #82051-458).
Varying concentrations of each compound to be tested were diluted in assay buffer containing 3-isobutyl-1-methylxanthin (IBMX; Sigma cat #15879) and added to the assay plate wells in a volume of 2 microL (final IBMX concentration was 400 microM and final DMSO concentration was 0.58%). Following 30 minutes incubation at room temperature, 5 microL of labeled d2 cAMP and 5 microL of anti-cAMP antibody (both diluted 1:20 in cell lysis buffer; as described in the manufacturers assay protocol) were added to each well of the assay plate. The plates were then incubated at room temperature and after 60 minutes, changes in the HTRF signal were read with an Envision 2104 multilabel plate reader using excitation of 330 nm and emissions of 615 and 665 nm. Raw data were converted to nM cAMP by interpolation from a cAMP standard curve (as described in the manufacturer's assay protocol) and EC50 determinations were made from an agonist-response curves analyzed with a curve fitting program using a 4-paramter logistic dose response equation.

human GPR119 [2] = target: T1, human GPR119; assay: Beta-lactamase functional assay (hGPR119 HEK293-CRE beta-lactamase reporter); type: cell-based
Description: The assay for GPR119 agonists utilizes a cell-based (hGPR119 HEK293-CRE beta-lactamase) reporter construct where agonist activation of human GPR119 is coupled to beta-lactamase production via a cyclic AMP response element (CRE). GPR119 activity is then measured utilizing a FRET-enabled beta-lactamase substrate, CCF4-AM (Live Blazer FRET-B/G Loading kit, Invitrogen cat #K1027). Specifically, hGPR119-HEK-CRE-beta-lactamase cells (Invitrogen 2.5×10^7/mL) were removed from liquid nitrogen storage, and diluted in plating medium (Dulbecco's modified Eagle medium high glucose (DMEM; Gibco Cat #11995-065), 10% heat inactivated fetal bovine serum (HIFBS; Sigma Cat #F4135), 1×MEM Nonessential amino acids (Gibco Cat #15630-080), 25 mM HEPES pH 7.0 (Gibco Cat #15630-080), 200 nM potassium clavulanate (Sigma Cat #P3494). The cell concentration was adjusted using cell plating medium and 50 microL of this cell suspension ([…]) was added into each well of a black, clear bottom, poly-d-lysine coated 384-well plate (Greiner Bio-One cat #781946) and incubated at 37 degrees Celsius in a humidified environment containing 5% carbon dioxide. After 4 hours the plating medium was removed and replaced with 40 microL of assay medium (Assay medium is plating medium without potassium clavulanate and HIFBS). Varying concentrations of each compound to be tested was then added in a volume of 10 microL (final DMSO≦0.5%) and the cells were incubated for 16 hours at 37 degrees Celsius in a humidified environment containing 5% carbon dioxide. Plates were removed from the incubator and allowed to equilibrate to room temperature for approximately 15 minutes. 10 microL of 6×CCF4/AM working dye solution (prepared according to instructions in the Live Blazer FRET-B/G Loading kit, Invitrogen cat #K1027) was added per well and incubated at room temperature for 2 hours in the dark. Fluorescence was measured on an EnVision fluorimetric plate reader, excitation 405 nm, emission 460 nm/535 nm. EC50 determinations were made from agonist-response curves analyzed with a curve fitting program using a 4-parameter logistic dose-response equation.

human GPR119 [3] = target: T1, human GPR119; assay: GPR119 radioligand binding assay ([3H]Cmpd A, membranes of HEK 293FT cells over-expressing hGPR119); conditions: competition with 3H-Cmpd A; Ki from IC50 by Cheng-Prusoff; one line per run
Description: HEK 293FT cells (Invitrogen, Carlsbad, Calif.) were grown in a shake flask in 293Freestyle medium (Invitrogen) supplemented with 50 microg/mL neomycin and 10 mM HEPES (37 C, 8% carbon dioxide, shaking). The cells were centrifuged gently (approximately 500×g, 10 minutes) and the pellet resuspended in a mixture of Dulbecco's PBS(minus Mg++/−Ca++) supplemented with 18% fetal bovine serum (Sigma Aldrich) and P1 virus such that the multiplicity of infection (MOI) was 10 and the final cell density was 1.3×10^6/ml (total volume 2.5 liters). The cells were transferred to a 5 liter Wave Bioreactor Wavebag (Wave Technologies, MA) and incubated for 4 hours at 27 degrees Celsius (17 rocks/min, 7 degrees platform angle); at the end of the incubation period, an equal volume (2.5 liters) of 293Freestyle medium supplemented with 30 mM sodium butyrate (Sigma Aldrich) was added (final concentration=15 mM), and the cells were grown for 20 hours (37 degrees Celsius, 8% CO2 [0.2 liters/min}, 25 rocks/minute, 7 degrees platform angle). Cells were harvested via centrifugation (3,000×g, 10 minutes), washed once on DPBS (minus Ca++/Mg++), resuspended in 0.25M sucrose, 25 mM HEPES, 0.5 mM EDTA, pH 7.4 and frozen at −80 degrees Celsius.
The frozen cells were thawed on ice and centrifuged at 700×g (1400 rpm) for 10 minutes at 4 degrees Celsius. The cell pellet was resuspended in 20 ml phosphate-buffered saline, and centrifuged at 1400 rpm for 10 minutes. The cell pellet was then resuspended in homogenization buffer (10 mM HEPES (Gibco #15630), pH 7.5, 1 mM EDTA (BioSolutions, #BIO260-15), 1 mM EGTA (Sigma, #E-4378), 0.01 mg/ml benzamidine (Sigma #B 6506), 0.01 mg/ml bacitracin (Sigma #B 0125), 0.005 mg/ml leupeptin (Sigma #L 8511), 0.005 mg/ml aprotinin (Sigma #A 1153)) and incubated on ice for 10 minutes. Cells were then lysed with 15 gentle strokes of a tight-fitting glass Dounce homogenizer. The homogenate was centrifuged at 1000×g (2200 rpm) for 10 minutes at 4 degrees Celsius. The supernatant was transferred into fresh centrifuge tubes on ice. The cell pellet was resuspended in homogenization buffer, and centrifuged again at 1000×g (2200 rpm) for 10 minutes at 4 degrees Celsius after which the supernatant was removed and the pellet resuspended in homogenization buffer. This process was repeated a third time, after which the supernatants were combined, Benzonase (Novagen #71206) and MgCl2 (Fluka #63020) were added to final concentrations of 1 U/ml and 6 mM, respectively, and incubated on ice for one hour. The solution was then centrifuged at 25,000×g (15000 rpm) for 20 minutes at 4 degrees Celsius, the supernatant was discarded, and the pellet was resuspended in fresh homogenization buffer (minus Benzonase and MgCl2). After repeating the 25,000×g centrifugation step, the final membrane pellet was resuspended in homogenization buffer and frozen at −80 degrees Celsius. The protein concentration was determined using the Pierce BCA protein assay kit (Pierce reagents A #23223 and B #23224).
Test compounds were serially diluted in 100% DMSO (J. T. Baker #922401). 2 microL of each dilution was added to appropriate wells of a 96-well plate (each concentration in triplicate). Unlabeled Cmpd A, at a final concentration of 10 microM, was used to determine non-specific binding.
^3H-Cmpd A was diluted in binding buffer (50 mM Tris-HCl, pH 7.5, (Sigma #T7443), 10 mM MgCl2 (Fluka 63020), 1 mM EDTA (BioSolutions #BIO260-15), 0.15% bovine serum albumin (Sigma #A7511), 0.01 mg/mL benzamidine (Sigma #B 6506), 0.01 mg/mL bacitracin (Sigma #B 0125), 0.005 mg/mL leupeptin (Sigma #L 8511), 0.005 mg/mL aprotinin (Sigma #A 1153)) to a concentration of 60 nM, and 100 microL added to all wells of 96-well plate (Nalge Nunc #267245).
Membranes expressing GPR119 were thawed and diluted to a final concentration of 20 μg/100 microL per well in Binding Buffer, and 100 microL of diluted membranes were added to each well of 96-well plate. […]

[4] = hGPR119 HEK-CRE beta-lactamase cells, HTRF cAMP, 30 minutes, one line per run, read-out: Human cAMP Functional EC50
[5] = percent of maximal activity relative to standard GPR119 agonist (WO2005121121) at 10 μM, one line per run, read-out: Intrinsic Activity* (%) (cAMP)

Compound	EC50 (human GPR119 [1]; [4])	Emax (human GPR119 [1]; [5]) [%]	EC50 (human GPR119 [1]; **the curve was extrapolated to 100% to calculate an EC50, read-out: Human cAMP Functional EC50 (nM), curve extrapolated to 100%) [nM]	Emax (human GPR119 [1]; **the curve was extrapolated to 100% to calculate an EC50, read-out: Intrinsic Activity* (%) (cAMP), curve extrapolated to 100%)	EC50 (human GPR119 [2]; **the curve was extrapolated to 100% to calculate an EC50, read-out: Human B-lactamase Functional EC50 (nM), curve extrapolated to 100%) [nM]	Emax (human GPR119 [2]; **the curve was extrapolated to 100% to calculate an EC50, read-out: Intrinsic Activity* (%) (B-lactamase), curve extrapolated to 100%)	EC50 (human GPR119 [2]; hGPR119 HEK293-CRE beta-lactamase cells, 16 hours incubation, one line per run, read-out: Human B-lactamase Functional EC50) [nM]	Emax (human GPR119 [2]; percent of maximal activity relative to standard GPR119 agonist (WO2005121121) at 10 microM, one line per run, read-out: Intrinsic Activity* (%) (B-lactamase))	Ki (human GPR119 [3]) [nM]
Cc1c(OC2CCN(C(=O)OC3(C)CC3)CC2)ncnc1N1Cc2cnn(C)c2C1 [Example 5, 1-Methylcyclopropyl 4-{[5-methyl-6-(1-methyl-4,6-dihydropyrrolo[3,4-c]pyrazol-5(1H)-yl)pyrimidin-4-yl]oxy}piperidine-1-carboxylate]	118 nM	82							
Cc1c(O[C@H]2CCN(C(=O)OC(C)C)C[C@H]2F)ncnc1N1Cc2cnn(C)c2C1 (racemic) [Example 13, 1-Isopropyl (3,4-cis)-3-fluoro-4-{[5-methyl-6-(1-methyl-4,6-dihydropyrrolo[3,4-c]pyrazol-5(1H)-yl)pyrimidin-4-yl]oxy}piperidine-1-carboxylate]	18 nM	36							
CC(C)OC(=O)N1CCC(Oc2cc(N3Cc4cnn(C)c4C3)ncn2)CC1 [Example 1, Isopropyl 4-{[6-(1-methyl-4,6-dihydropyrrolo[3,4-c]pyrazol-5(1H)-yl)pyrimidin-4-yl]oxy}piperidine-1-carboxylate]	> 10000 nM		7500	100	9220	100	3850	116	
Cc1c(O[C@H]2[C@@H]3COC[C@H]2CN(C(=O)OC2(C)CC2)C3)ncnc1N1Cc2cnn(C)c2C1 [Example 10, 1-Methylcyclopropyyl (9-anti)-9-{[5-methyl-6-(1-methyl-4,6-dihydropyrrolo[3,4-c]pyrazol-5(1H)-yl)pyrimidin-4-yl]oxy}-3-oxa-7-azabicyclo[3.3.1]nonane-7-carboxylate]	239 nM and 108 nM								26
